1 molecule from patent publication US11464227B2, “Enhanced microbial and biorational control of nematode pests of plants” (ADVANCED BIOLOGICAL MARKETING, INC., priority 2017, dated 2022) can be followed below.

SMILES strings stand for the structures.

The assay deals with plant. Kind of assay: Plant growth and disease resistance induction by Trichoderma metabolite. The class given is in vivo. Particulars: at very low concentrations. The source says:
These endophytic microorganisms frequently are fully symbiotic with plants (Harman, Howell, et al., 2004). These endophytic symbionts have abilities to induce multiple beneficial effects in plants, including induced resistance to diseases and potentially other pests; resistance to abiotic stresses such as drought, salt and flooding; improved efficiency of uses of nitrogen and other plant nutrients; enhancement of seed germination and seedling vigor; and enhanced plant growth and development. There are numerous diverse genera of microbes that induce at least most of these changes in plant performance, including mycorrhizae, plant growth promoting rhizobacteria, and Basidomycetous fungi in the Sebaciles such as Piriformaspora indica. These organisms have an endophytic versus a plant pathogenic life style (Shoresh, Mastouri, et al., 2010) typical of numerous other plant-associated microorganisms. The systemic changes in plant gene expression are presumed to be induced by the production of specific triggering metabolites from these different organisms. […] (Cawoy, Mariutto, et al., 2014, Debois, Fernandez, et al., 2015), and hydrophobic proteins (Djonovic, Vargas, et al., 2007, Ruoccco, Lanzuise, et al., 2015) and volatile and nonvolatile metabolites from Trichoderma […], et al., 2008).

For `C=CC(O)CCCCC` (centres unmarked) [1-octene-3-ol], the “induction of plant disease resistance” value is given as “highly effective” and the plant growth entry is “strongly enhances”.
